The record followed here is paper PMC12067128, “Macrocyclization: Enhancing Drug-like Properties of Discoidin Domain Receptor Kinase Inhibitors” (ACS Medicinal Chemistry Letters, 2025).

Like-named read-outs stand apart in the source and are kept apart here.

The target in one data set is T1, DDR1 (Homo sapiens, UniProt Q08345).
T1 construct: ProLink™ (PK) tagged full-length DDR1b; host or cells: U2OS human osteosarcoma cells (PathHunter U2OS DDR1)
Nature of the data set: PathHunter U2OS DDR1 Functional Assay (DDR1 cellular assay). In kind it is cell-based. Conditions: U2OS PathHunter cells, collagen II stimulation; read-out: Cell DDR1 IC50. Here is the method: page 17: In vitro Biology DDR1 cellular assay The activity of Discoidin Domain-containing Receptor protein kinase (DDR) inhibitors was determined using the PathHunter® U2OS DDR1 Functional Assay which employs Enzyme Fragment Complementation (EFC) technology, where the β-galactosidase (β-gal) enzyme is split into two fragments, ProLink (PK) and Enzyme Acceptor (EA). Independently these fragments […] β-gal enzyme. In the PathHunter® U2OS DDR1 Functional Assay, the U2OS human osteosarcoma cell line is modified to co-express a ProLinkTM (PK) tagged full-length DDR1b and an Enzyme Acceptor (EA) tagged SH2 domain. Collagen II, as a ligand, induces activation of DDR1b which results in cross-phosphorylation. The SH2-EA fusion protein then specifically binds the phosphorylated receptor resulting in complementation of the two fragments of β-gal and formation of a functional enzyme. β-gal activity is then quantitatively detected using a chemiluminescent substrate. PathHunter® Human U2OS DDR1 cells were prepared in AssayCompleteTM Cell Plating 16 Reagent (DiscoverX 93-0563R16A) and plated at 5000 cells/well in a 384-well white, clear-bottom, sterile plate (ThermoFisher 142762) and incubated for 90 minutes at 37 °C, 5% CO2. Test compounds were serially diluted from a top concentration of 10 mM (1000x final assay concentration) directly in a 384-well low-volume polypropylene plate (Greiner bio-one 784201) using an Echo 555 acoustic liquid handler (Labcyte). Test compounds were diluted in AssayCompleteTM Cell Plating 16 Reagent then added to cells using an Integra ViaFlow384 electronic reagent dispenser and pre-incubated at 37 °C, 5% CO2 for 30 minutes. Following compound pre-incubation, the cells were stimulated with 20 μg/ml Bovine Type II Collagen (DiscoverX 92-1090) with incubation for 20 hours at 37 °C, 5% CO2. Next, PathHunter Detection Reagent (DiscoverX 93-[…]) was added to the cells, incubated for 60 minutes at 25 °C in the dark, prior to capturing the chemiluminescent signal on a PHERAstar (BMG LABTECH). The percentage of inhibition was calculated for each concentration of compound using a 0.1% DMSO vehicle/Collagen II control response as a 0% inhibition and a 10 nM Dasatinib/Collagen II positive 17 page 18: control response as a 100% inhibition. The final assay concentration of the top of the test compound CRC was 10 μM. 18

The nature of data set [1]: Microsomes stability (clearance in human microsomes). In kind it is in vitro ADME. The following applies: pH 7.4, 0.8 mg protein/mL, 1 mM NADPH, 37 °C, read-out: CLint h mic (clearance in human microsomes). Here is the method:
values in Caco-2 assay were: <10 nm/s = low level; 10-50 nm/s = medium level; >50 nm/s = high […]
Test compounds were incubated, in duplicate, at the concentration of 1 μM with liver microsomes (0.8 mg protein/mL) in Dulbecco’s buffer (pH 7.4) at 37 °C in the presence of 1 mM NADPH. At different time points (0, 5, 10, 20, 30, and 60 min), 50 μL aliquots of the incubates were taken, added with 80 μL of ice-cold acetonitrile, and 20 μL of 1 μM warfarin in acetonitrile (injection check) to stop the reaction, and samples were centrifuged. The supernatants were analyzed by LC−MS/MS for unchanged compounds. Test compounds were incubated with liver microsomes in Dulbecco’s buffer in the absence of NADPH for 0 and 60 min, as control. Midazolam at the concentration of 1 μM, was incubated with microsomes as positive control for phase I activity of microsomes. Control samples were processed as test compound samples.

Data set [2] in a line: ChromLogD chromatographic lipophilicity. The following applies: C18 column, pH 7.4. Format: physicochemical. Here is the method:
The chromatographic method was based on the differential retention times of test compounds on a C18 column (Luna C18(2), 30 x 2mm, […], 100 Å) under controlled liquid chromatography conditions, comparing retention times with those of standards (Benzyl Alcohol, p-Nitrophenol, Bromobenzene, Anthracene) with known log D values. Stock solutions (10 mM in DMSO) of test compounds were diluted to a final concentration of 1 mM. The mobile phases consisted of A (20mM Ammonium Acetate buffered to pH 7.4 with ammonia hydroxide) and B (ACN). The LC gradient profile was the following: a linear increase to 90% B during 0.0 to 1.3 min, hold at 90 % B during 1.3 to 1.53 min then back to 0.0% B from 1.53 to 1.60 min, hold at 0% B until the end of the run (2.00 min). 1 μL of the sample volume was injected, using a flow rate of 0.5 mL/min and a column temperature of 40°C. All compounds were detected by UPLC/MS analysis using a a Waters ACQUITY UPLC equipped with a Photo Diode Array (PDA) detector coupled with a Waters ACQUITY QDa single quadrupole mass spectrometer with an Electrospray ionization (ESI) source.
The retention times were obtained by processing data in Waters Openlynx. The standards are then plotted in excel and the best fit line was used as the basis for calculating the unknown LogD values from the retention times of the peaks obtained.

The nature of data set [3]: log kW IAM (immobilized artificial membrane chromatography). In kind it is physicochemical. Conditions: lipophilicity descriptor, phospholipid interaction. The source says: (§1) Lipophilicity has been obtained in four different systems. BRlogD and ChromlogD are chromatographic surrogates of log Doct and, despite showing different values, are linearly correlated (Figure S4). Log k′ 80 PLRP-S is a surrogate of log Dtol. Log kw ^IAM mimics the interaction between the compounds and the phospholipids of membranes. The combination of the experimental lipophilicity descriptors is essential to evaluate lipophilicity in different regions of the membrane bilayer. This complete lipophilicity profile may give an idea of the permeability potential of poorly soluble compounds for which standard permeability measurements are unreliable. […] This is supported by its low IC50 value in the cell-based assay.

A short description of data set [4]: log k'80 PLRP-S chromatographic descriptor. In kind it is physicochemical. The following applies: surrogate of log Dtol.
Text: as §1

The nature of data set [5]: Chamelogk chameleonicity descriptor. Format: physicochemical. The following applies: >0.6 = chameleons, <0.6 = non-chameleons. Here is the method: Finally, chameleonicity was measured with the recently described Chamelogk method (Table ), where 0.6 is the threshold value to distinguish chameleons from non-chameleons.

T1 sequence (Q08345 19-913): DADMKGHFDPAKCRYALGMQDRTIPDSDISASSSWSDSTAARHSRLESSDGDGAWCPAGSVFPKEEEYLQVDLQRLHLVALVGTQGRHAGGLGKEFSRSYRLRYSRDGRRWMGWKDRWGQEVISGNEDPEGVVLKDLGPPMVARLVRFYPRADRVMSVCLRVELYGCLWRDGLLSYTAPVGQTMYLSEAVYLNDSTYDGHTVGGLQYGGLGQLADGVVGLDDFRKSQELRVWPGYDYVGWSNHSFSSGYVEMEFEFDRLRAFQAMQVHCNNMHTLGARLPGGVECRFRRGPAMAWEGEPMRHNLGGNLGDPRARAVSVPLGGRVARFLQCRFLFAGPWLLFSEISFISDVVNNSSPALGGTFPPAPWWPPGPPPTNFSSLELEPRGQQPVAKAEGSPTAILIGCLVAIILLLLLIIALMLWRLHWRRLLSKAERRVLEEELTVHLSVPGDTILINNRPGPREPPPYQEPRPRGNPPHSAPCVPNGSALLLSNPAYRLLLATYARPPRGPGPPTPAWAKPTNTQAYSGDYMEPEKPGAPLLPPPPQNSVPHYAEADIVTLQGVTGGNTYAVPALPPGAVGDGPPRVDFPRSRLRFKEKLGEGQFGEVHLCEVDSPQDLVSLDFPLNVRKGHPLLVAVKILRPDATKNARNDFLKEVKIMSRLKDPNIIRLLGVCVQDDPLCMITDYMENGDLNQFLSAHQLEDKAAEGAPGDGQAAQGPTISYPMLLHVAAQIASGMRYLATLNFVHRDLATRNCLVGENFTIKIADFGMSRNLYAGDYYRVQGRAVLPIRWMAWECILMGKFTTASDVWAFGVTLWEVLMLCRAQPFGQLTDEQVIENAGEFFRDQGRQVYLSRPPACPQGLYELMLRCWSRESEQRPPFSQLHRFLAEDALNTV

On to `Cn1cc2c3nc(ncc31)Nc1cnn(c1)CCCNCCOc1ccc-2cc1` [Compound 5a], for which the IC50 (commonly the concentration at which inhibition is half-maximal) at DDR1 turned out to be 125 nM. In addition, the microsomal CLint at 1 h, 1 µM in data set [1] (microsomes) was 80.5 ± 2.7 µL/min/mg. For the same compound, the chromatographic logD – broadly, a lipophilicity value derived from retention on a column – in data set [2] came out at 1.75. Further, the “log kW^IAM” value in data set [3] stood at 2.33. Also, the “logk'80 PLRP-S” value in data set [4] is recorded as -0.65. For the same compound, the Chamelogk in data set [5] stood at 1.76.
For the compound `Cn1cc2c3nc(ncc31)Nc1cnn(c1)CCCNC(=O)COc1ccc-2cc1` [Compound 5b], the IC50 at DDR1 turned out to be 2000 nM. Besides, the microsomal CLint at 1 h, 1 µM in data set [1] (liver microsomes) came to 88.5 ± 9.6 µL/min/mg. In addition, the chromatographic logD in data set [2] turned out to be 1.52. Also, the “log kW^IAM” value in data set [3] was 1.87. Further, the “logk'80 PLRP-S” value in data set [4] is on record as -0.68. In data set [5], this compound gave a Chamelogk of 0.61.
Consider `c1cc2nc(n1)Nc1cnn(c1)CCCNCCOc1ccc(cc1)N2` [Compound 6a], for which the IC50 at DDR1 stood at 1250 nM. Further, the microsomal CLint at 1 h, 1 µM in data set [1] (microsomes) is 22.1 ± 1.4 µL/min/mg. In addition, the chromatographic logD in data set [2] came out at 1.15. In addition, in data set [3], the “log kW^IAM” value stood at 1.96. Further, the “logk'80 PLRP-S” value in data set [4] is -0.93. This compound also registered a Chamelogk in data set [5] of 1.63.
Turning to `O=C1COc2ccc(cc2)Nc2ccnc(n2)Nc2cnn(c2)CCCN1` [Compound 6b], the IC50 at DDR1 was above 3150 nM. In addition, the microsomal CLint at 1 h, 1 µM in data set [1] (liver microsomes) was determined as 12.1 ± 0.1 µL/min/mg. For the same compound, the chromatographic logD in data set [2] was 1.17. For the same compound, the “log kW^IAM” value in data set [3] was 1.53. Also, the “logk'80 PLRP-S” value in data set [4] was -0.85. In addition, in data set [5], the Chamelogk was found to be 1.95.
